From patent US8680052B1, “Methods of treating, reducing the incidence of, and/or preventing ischemic events” (The Medicines Company, priority 2013, dated 2014)

Tests used:
[1] = system: patients undergoing percutaneous coronary intervention (PCI); settings: human, in vivo, 48 h;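 note: bleeding events compared through 48 h in the safety population, meaning patients given at least one study drug dose and grouped by treatment actually received, two-tailed tests at 0.05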
Experimental: (§1) The primary efficacy endpoint was the composite of mortality, myocardial infarction, or ischemia-driven revascularization at 48 hours. The primary analysis was performed on a modified intent-to-treat population. Confirmatory analyses were performed on an intent-to-treat population. Secondary endpoints included the individual rates of mortality, myocardial infarction, new Q-wave myocardial infarction, ischemia-driven revascularization, abrupt vessel closure, or stroke at 48 hours. Mortality at 30 days and 1 year was also recorded. The clinical events committee adjudicated myocardial infarction, Q-wave myocardial infarction, ischemia-driven revascularization, stent thromboses, and stroke (ischemic or hemorrhagic). The definition of stent thrombosis was similar to the Academic Research Consortium definition of definite stent thrombosis. After review of the prespecified analyses, two exploratory endpoints less reliant on periprocedural biomarker ascertainment were examined. The exploratory endpoints, which were composed of prespecified and adjudicated endpoints, were the composite of mortality, Q-wave myocardial infarction, or ischemia-driven revascularization and the composite of mortality, Q-wave myocardial infarction, or stent thrombosis. Bleeding and adverse events through 48 hours were compared.
(§2) All efficacy analyses were performed on the modified intent-to-treat population, defined as all randomized patients who received at least one dose of study drug and underwent the index PCI. All safety-related analyses were performed on the safety population, which included all patients who received at least one dose of assigned study drug. Patients in the safety analyses were assigned to a treatment arm based on treatment actually received, not as randomized. Intent-to-treat analyses are also presented for full disclosure of results. All statistical tests were two-tailed using a level of significance of 0.05. […] Logistic regression was also used to analyze the majority of the remaining secondary endpoints.

[2] = in vivo; cited from earlier work
platelet function = settings: in vivo; cited from earlier work
[3] = system: patients undergoing percutaneous coronary intervention (PCI); assay: Example 1: bleeding and adverse events through 48 hours;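 note: bleeding events compared through 48 h in the safety population, meaning patients given at least one study drug dose and grouped by treatment actually received, two-tailed tests at 0.05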
Experimental: as §1, §2

[4] = 48-hour, safety population, cangrelor vs placebo

For `CSCCNc1nc(SCCC(F)(F)F)nc2c1ncn2[C@@H]1O[C@H](COP(=O)(O)OP(=O)(O)C(Cl)(Cl)P(=O)(O)O)[C@@H](O)[C@H]1O` [Cangrelor, cangrelor], the “ACUITY criteria Major bleeding” value [1] was 147 (5.5) no. (%), the “ACUITY criteria Minor bleeding” value [1] was 320 (12.0) no. (%) and the “Access site bleeding requiring radiologic or surgical intervention” value [1] was 8 (0.3) no. (%). The Any blood transfusion [1] was 26 (1.0) no. (%), the Any platelet transfusion [1] was 4 (0.2) no. (%) and the “Any red blood cell transfusion” value [1] was 25 (0.9) no. (%). For the same molecule, the “Drop in hemoglobin and/or hematocrit” value [1] was 33 (1.2) no. (%), the Ecchymosis [1] was 95 (3.6) no. (%) and the Epistaxis [1] was 6 (0.2) no. (%). For the same molecule, the “GUSTO criteria Mild bleeding” value [1] was 427 (16.0) no. (%), the “GUSTO criteria Moderate bleeding” value [1] was 20 (0.8) no. (%) and the “GUSTO criteria Severe/life-threatening bleeding” value [1] was 9 (0.3) no. (%). For the same molecule, the “Hematoma <5 cm at puncture site” value [1] was 150 (5.6) no. (%), the “Hematoma ≧5 cm at puncture site” value [1] was 115 (4.3) no. (%) and the Hemodynamic compromise [1] was 7 (0.3) no. (%). The Intracranial hemorrhage [1] was 2 (0.1) no. (%), the Intraocular [1] was 0 (0.0) no. (%) and the “Odds Ratio (95% CI): Any blood transfusion” value [1] was 1.624 (0.869, 3.034). The “Odds Ratio (95% CI): Any platelet transfusion” value [1] was 1.992 (0.365, 10.887), the “Odds Ratio (95% CI): Any red blood cell transfusion” value [1] was 1.665 (0.876, 3.166) and the “Odds Ratio (95% CI): Drop in hemoglobin and/or hematocrit” value [1] was 0.938 (0.581, 1.514). For the same molecule, the “Odds Ratio (95% CI): Ecchymosis” value [1] was 1.684 (1.207, 2.349), the “Odds Ratio (95% CI): Epistaxis” value [1] was 0.497 (0.186, 1.325) and the “Odds Ratio (95% CI): GUSTO criteria Mild bleeding” value [1] was 1.442 (1.232, 1.688). The “Odds Ratio (95% CI): Reoperation for bleeding” value [1] was 0.995 (0.062, 15.924), the “Odds Ratio (95% CI): Retroperitoneal” value [1] was 1.992 (0.180, 21.978) and the “Odds Ratio (95% CI): TIMI criteria Major bleeding” value [1] was 0.442 (0.136, 1.436). For the same molecule, the “Odds Ratio (95% CI): TIMI criteria Minor bleeding” value [1] was 1.372 (0.719, 2.618), the “Odds Ratio (95% CI): Thrombocytopenia” value [1] was 0.663 (0.111, 3.973) and the “Oozing at puncture site” value [1] was 125 (4.7) no. (%). The Reoperation for bleeding [1] was 1 (0.0) no. (%), the Retroperitoneal [1] was 2 (0.1) no. (%) and the “TIMI criteria Major bleeding” value [1] was 4 (0.2) no. (%). For the same molecule, the “TIMI criteria Minor bleeding” value [1] was 22 (0.8) no. (%), the plasma half-life [2] was 3 to 5 min and the “platelet function returns to normal after drug termination” value (platelet function) was 30 to 60 min. For the same molecule, the Thrombocytopenia ([3]; 48-hour, safety population) was 2 (0.1) no. (%), the “Odds Ratio (95% CI): ACUITY criteria Major bleeding” value [3, 4] was 1.607 (1.232, 2.096) and the “Odds Ratio (95% CI): ACUITY criteria Minor bleeding” value [3, 4] was 1.335 (1.120, 1.592). For the same molecule, the “Odds Ratio (95% CI): Access site bleeding requiring radiologic or surgical intervention” value [3, 4] was 0.796 (0.314, 2.019), the “Odds Ratio (95% CI): GUSTO criteria Moderate bleeding” value [3, 4] was 1.536 (0.762, 3.093) and the “Odds Ratio (95% CI): GUSTO criteria Severe/life-threatening bleeding” value [3, 4] was 1.495 (0.531, 4.205). The “Odds Ratio (95% CI): Hematoma <5 cm at puncture site” value [3, 4] was 1.270 (0.992, 1.626), the “Odds Ratio (95% CI): Hematoma ≧5 cm at puncture site” value [3, 4] was 1.640 (1.214, 2.216) and the “Odds Ratio (95% CI): Hemodynamic compromise” value [3, 4] was 1.395 (0.442, 4.400). The “Odds Ratio (95% CI): Intracranial hemorrhage” value [3, 4] was 1.992 (0.180, 21.978), the “Odds Ratio (95% CI): Oozing at puncture site” value [3, 4] was 1.385 (1.052, 1.825) and the “rates of red blood cell transfusion” value ([3]; 48 hours) was 0.9%. The incidence of dyspnea ([3]; human, in vivo, 48 h) was 1.4% and the rate of arrhythmia ([3]; human, in vivo, 48 h) was 2.3%.
